From patent publication US20150105252A1, “SUBSTITUTED PYRAZOLES AS HERBICIDES” (E I DU PONT DE NEMOURS AND COMPANY, priority 2013, published 2015)

Assays:
hairy beggarticks = test: Test F preemergence; type: in vivo, Bidens pilosa
Procedure, shortened: (§1)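 Visual injury was scored from 0 (none) to 100 (complete control) relative to untreated controls after 14–21 days in a greenhouse. Before that, formulated compound (solvent plus surfactant) was sprayed either on silt-loam soil right after sowing or on emerged plants at the 1–4-leaf stage, 2–18 cm tall.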

chickweed = test: Test D preemergence; type: in vivo, Stellaria media; conditions: scale 0 to 100
Procedure, shortened: (§2)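 Pre: sown in silt loam, sprayed at once. Post: grown in peat-moss/vermiculite mix, sprayed at 1–4 leaves (2–18 cm). Formulation: non-phytotoxic solvent + surfactant. Read-out: visual 0–100 vs controls, 14–21 d.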

wild poinsettia = test: Test F preemergence; type: in vivo, Euphorbia heterophylla
Procedure, shortened: as §1

field poppy = test: Test D postemergence; type: in vivo, Papaver rhoeas; conditions: scale 0 to 100
Procedure, shortened: as §2

wheat, winter = test: Test D postemergence; type: in vivo, Triticum aestivum; conditions: scale 0 to 100
Procedure, shortened: as §2

wheat, spring = test: Test D postemergence; type: in vivo, Triticum aestivum; conditions: scale 0 to 100
Procedure, shortened: as §2

field violet = test: Test D postemergence; type: in vivo, Viola arvensis; conditions: scale 0 to 100
Procedure, shortened: as §2

crabgrass, Brazil = test: Test F preemergence; type: in vivo, Digitaria horizontalis
Procedure, shortened: as §1

green foxtail = test: Test F preemergence; type: in vivo, Setaria viridis
Procedure, shortened: as §1

foxtail, green = test: Test D postemergence; type: in vivo, Setaria viridis; conditions: scale 0 to 100
Procedure, shortened: as §2

bluegrass [1] = test: Test D postemergence; type: in vivo, Poa annua; conditions: scale 0 to 100
Procedure, shortened: as §2

speedwell = test: Test D postemergence; type: in vivo, Veronica persica; conditions: scale 0 to 100
Procedure, shortened: as §2

oat, wild = test: Test D postemergence; type: in vivo, Avena fatua; conditions: scale 0 to 100
Procedure, shortened: as §2

bluegrass [2] = test: Test D preemergence; type: in vivo, Poa annua; conditions: scale 0 to 100
Procedure, shortened: as §2

[3] = Preemergence, 62 g ai/ha, scale 0 to 100
[4] = Preemergence, 125 g ai/ha, scale 0 to 100
[5] = preemergence, 8 g ai/ha, scale 0 to 100, 100 is complete control

Question: With `CCOc1cc(C(=O)NC(C)C)nn1Cc1ccnc(C(F)(F)F)c1` [Compound 188] as the compound, how does the “Plant response rating, Hairy Beggarticks” value (hairy beggarticks; [3]) read?
Answer: 0

Question: What about the “Plant response rating, Hairy Beggarticks” value (hairy beggarticks; [4]) of the same compound?
Answer: 0

Question: What about the “Plant response rating, Hairy Beggarticks” value (hairy beggarticks; [5]) of the same compound?
Answer: 0

Question: What about the “Plant response rating, Chickweed” value (chickweed; 31 g ai/ha) of the same compound?
Answer: 100

Question: What about the “Plant response rating, Chickweed” value (chickweed; 62 g ai/ha) of the same compound?
Answer: 100

Question: And the “Plant response rating, Chickweed” value (chickweed; 125 g ai/ha)?
Answer: 100

Question: And the “Plant response rating, Chickweed” value (chickweed; 250 g ai/ha)?
Answer: 100

Question: What about the “Plant response rating, Wild Poinsettia” value (wild poinsettia; [3]) of the same compound?
Answer: 100

Question: What about the “Plant response rating, Wild Poinsettia” value (wild poinsettia; [4]) of the same compound?
Answer: 100

Question: What about the “Plant response rating, Wild Poinsettia” value (wild poinsettia; [5]) of the same compound?
Answer: 10

Question: And the “Field Poppy plant response rating” value (field poppy; Postemergence, 31 g ai/ha)?
Answer: 60

Question: And the “Field Poppy plant response rating” value (field poppy; Postemergence, 125 g ai/ha)?
Answer: 75

Question: And the “Field Poppy plant response rating” value (field poppy; Postemergence, 250 g ai/ha)?
Answer: 95

Question: What about the “Field Poppy plant response rating” value (field poppy; postemergence, 62 g ai/ha) of the same compound?
Answer: 60

Question: And the “Wheat, Winter plant response rating” value (wheat, winter; Postemergence, 31 g ai/ha)?
Answer: 25

Question: What about the “Wheat, Winter plant response rating” value (wheat, winter; Postemergence, 125 g ai/ha) of the same compound?
Answer: 30

Question: What about the “Wheat, Winter plant response rating” value (wheat, winter; Postemergence, 250 g ai/ha) of the same compound?
Answer: 65

Question: What about the “Wheat, Winter plant response rating” value (wheat, winter; postemergence, 62 g ai/ha) of the same compound?
Answer: 25

Question: What about the “Wheat, Spring plant response rating” value (wheat, spring; Postemergence, 31 g ai/ha) of the same compound?
Answer: 10

Question: And the “Wheat, Spring plant response rating” value (wheat, spring; Postemergence, 125 g ai/ha)?
Answer: 15

Question: And the “Wheat, Spring plant response rating” value (wheat, spring; Postemergence, 250 g ai/ha)?
Answer: 40

Question: What about the “Wheat, Spring plant response rating” value (wheat, spring; postemergence, 62 g ai/ha) of the same compound?
Answer: 10

Question: What about the “Field Violet plant response rating” value (field violet; Postemergence, 31 g ai/ha) of the same compound?
Answer: 85

Question: What about the “Field Violet plant response rating” value (field violet; Postemergence, 125 g ai/ha) of the same compound?
Answer: 100

Question: What about the “Field Violet plant response rating” value (field violet; Postemergence, 250 g ai/ha) of the same compound?
Answer: 100

Question: What about the “Field Violet plant response rating” value (field violet; postemergence, 62 g ai/ha) of the same compound?
Answer: 85

Question: What about the “Plant response rating, Crabgrass, Brazil” value (crabgrass, Brazil; Preemergence, 16 g ai/ha, scale 0 to 100) of the same compound?
Answer: 100

Question: What about the “Plant response rating, Crabgrass, Brazil” value (crabgrass, Brazil; [3]) of the same compound?
Answer: 100

Question: What about the “Plant response rating, Crabgrass, Brazil” value (crabgrass, Brazil; [4]) of the same compound?
Answer: 100

Question: And the “Plant response rating, Crabgrass, Brazil” value (crabgrass, Brazil; [5])?
Answer: 35

Question: And the “Plant response rating, Green Foxtail” value (green foxtail; [3])?
Answer: 100

Question: What about the “Plant response rating, Green Foxtail” value (green foxtail; [4]) of the same compound?
Answer: 100

Question: And the “Plant response rating, Green Foxtail” value (green foxtail; [5])?
Answer: 5

Question: What about the “Foxtail, Green plant response rating” value (foxtail, green; Postemergence, 31 g ai/ha) of the same compound?
Answer: 25

Question: And the “Foxtail, Green plant response rating” value (foxtail, green; Postemergence, 125 g ai/ha)?
Answer: 25

Question: What about the “Foxtail, Green plant response rating” value (foxtail, green; Postemergence, 250 g ai/ha) of the same compound?
Answer: 55

Question: And the “Foxtail, Green plant response rating” value (foxtail, green; postemergence, 62 g ai/ha)?
Answer: 25

Question: And the “Bluegrass plant response rating” value (bluegrass [1]; Postemergence, 31 g ai/ha)?
Answer: 20

Question: What about the “Bluegrass plant response rating” value (bluegrass [1]; Postemergence, 125 g ai/ha) of the same compound?
Answer: 30

Question: What about the “Bluegrass plant response rating” value (bluegrass [1]; Postemergence, 250 g ai/ha) of the same compound?
Answer: 35

Question: What about the “Bluegrass plant response rating” value (bluegrass [1]; postemergence, 62 g ai/ha) of the same compound?
Answer: 20

Question: And the “Speedwell plant response rating” value (speedwell; Postemergence, 31 g ai/ha)?
Answer: 75

Question: What about the “Speedwell plant response rating” value (speedwell; Postemergence, 125 g ai/ha) of the same compound?
Answer: 80

Question: What about the “Speedwell plant response rating” value (speedwell; Postemergence, 250 g ai/ha) of the same compound?
Answer: 90

Question: What about the “Speedwell plant response rating” value (speedwell; postemergence, 62 g ai/ha) of the same compound?
Answer: 75

Question: What about the “Oat, Wild plant response rating” value (oat, wild; Postemergence, 31 g ai/ha) of the same compound?
Answer: 15

Question: What about the “Oat, Wild plant response rating” value (oat, wild; Postemergence, 125 g ai/ha) of the same compound?
Answer: 25

Question: What about the “Oat, Wild plant response rating” value (oat, wild; Postemergence, 250 g ai/ha) of the same compound?
Answer: 70

Question: What about the “Oat, Wild plant response rating” value (oat, wild; postemergence, 62 g ai/ha) of the same compound?
Answer: 15

Question: What about the “Plant response rating, Bluegrass” value (bluegrass [2]; 31 g ai/ha) of the same compound?
Answer: 55

Question: What about the “Plant response rating, Bluegrass” value (bluegrass [2]; 62 g ai/ha) of the same compound?
Answer: 70

Question: What about the “Plant response rating, Bluegrass” value (bluegrass [2]; 125 g ai/ha) of the same compound?
Answer: 100

Question: What about the “Plant response rating, Bluegrass” value (bluegrass [2]; 250 g ai/ha) of the same compound?
Answer: 100
